Test results reported in patent US11154569B2, “Ruthenium μ-nitrido complexes and their use as calcium uptake inhibitors” (CORNELL UNIVERSITY, priority 2018, dated 2021).

Experiments:
HEK293 cells = assay: Whole cell uptake of ruthenium (GFAAS) in HEK293 cells; assay type: cell-based, human; conditions: 50 μM, 24 hours
Description: HEK293 cells were grown to near confluence in 75 cm^2 dishes. […] The cells were then treated with culture media containing 50 μM of the complex and incubated at 37° C. for 24 hours. The cells were washed with 1 mL of PBS and harvested using 0.05% trypsin. The cells were pelleted by centrifugation, re-suspended in 1 mL of PBS, and pelleted again. The washing and pelleting step was repeated a total of three times, after which the supernatant was removed and the cells were suspended in 500 μL of lysis buffer containing 1% w/v 3-[3-cholamidopropyl)dimethylammonio]-1-propanesulfonate) (CHAPS), 5 mM ethylenediamine tetraacetic acid (EDTA), and 50 mM tris(hydroxymethyl)aminomethane (Tris) and 100 mM NaCl (pH=7.4). The suspension was vortexed for 30 seconds and incubated on ice for 45 minutes. Control cells not treated with the complexes were handled identically to the treated cells to correct for ruthenium present in the cells, and control dishes were incubated with the complex in the absence of cells to correct for non-specific adsorption of ruthenium to the plastic. If needed, samples were stored in −80° C. until analysis. Ruthenium and protein content of the lysates were determined as described above.

Water solubility = assay type: physicochemical

Structure (SMILES): N.N.N.N.N.N.N.N.[Cl-].[Cl-].[N-3].[Ru+4].[Ru+4] [C-2, [Ru2(μ-N)(NH3)8Cl2]Cl3]
- cellular uptake relative to C-1 (HEK293 cells): 10 times
- cellular uptake relative to C-3 (HEK293 cells): over twice as effectively as C-3
- solubility (Water solubility): 1000 µg/mL
